Data taken from US12385042B2, “Cell-penetrating peptides” (VECTIOPEP OÜ, priority 2019, dated 2025).
Where a SMILES comes first, the peptide text is derived from it. Bridges are numbered along the chain shown (N, C = ends). Roman numbers before positions name the chains, in order. [ ]: non-standard residue; d: D form. The star is where a group is joined. Stearoyl = CCCCCCCCCCCCCCCCCC(=O)*; Orn = NCCC[C@H](N)C(=O)O

What was measured:
U87 cells = assay: MTS toxicity assay; assay type: cell-based, human
Procedure: Cell proliferation was determined with the CellTiter 96® Aqueous Non-Radioactive Cell Proliferation Assay (MTS) (Promega Biotech AB, Sweden) according to the manufacturer's instructions. For this 1×10^5 U87 cells were seeded 1 day prior to experiment on transparent 96-well plates. On experiment day, media was replaced with 90 ul of fresh media and to the cells complexes formed at MR30 (both with 25 nM and 100 nM final siRNA concentrations) or free peptide at the range of 0.5-4 uM final concentrations were added. Cells were treated with complexes for 20 h. MTS was added according to the manufacturer's protocol. The absorbance of formazan product was measured at 490 nm with Tecan Sunrise microplate absorbance reader (Tecan Group Ltd, Switzerland) and percentage of viable cells was calculated using GraphPad Prism software 5.0 (Graphpad Software, CA, USA).

[1] = Fluorescent dye (PicoGreen) intercalation and heparin displacement assay of CPP/siRNA complexes; assay type: physicochemical
Procedure: Complexation of siRNA and CPPs was assessed by Quant-iT™ PicoGreen® (PG) (Thermo Fisher Scientific, USA) assay in mQ water. Complexes were prepared as described previously, following addition of diluted PG. For detection, complexes (⅕ of volume), water (3/5) and PG (1/5) working dilution was incubated for 5 minutes and fluorescence was measured by fluorimeter (λex=492 nm, λem=535 nm) (SynergyMx, BioTek). For heparin displacement, instead of water, heparin salt solution at different concentrations were used and complexes incubated at 37° C. for 30 min before addition of PG dilution. Complex formation was also confirmed by gel electrophoresis (details in section 2.11).

[2] = system: U87 MG-luc2 human glioma cells, stably expressing luc2; assay: Luciferase gene downregulation by CPP/siRNA (siLuc2) complexes; assay type: cell-based
How it was run: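 U87-luc2 cells in serum-containing medium got peptide/siLuc2 complexes formed in water (pH 5.3-6.3, MR 40:1, 1 h RT) at 25 nM siRNA for 4 h at 37 °C, then 20 h more. Lysate luminescence normalized to protein; in other runs, MR30/10 nM in HEPES-FBS, or varied MR at 50 nM, vs untreated (100%).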

[3] = system: CHO stably expressing green fluorescent protein (GFP); assay: GFP gene downregulation by CPP/siGFP complexes (lysate fluorescence, FACS, confocal); assay type: cell-based
Procedure: For assessing the siRNA mediated RNAi, CHO-GFP or U87-luc2 cells (5×10^5 cells per well) were seeded on a 24-well plate a day prior to the experiment and grown in serum containing media. On experiment day, prior to adding pre-formed complexes ( 1/10th of the final volume per well), media was replaced with fresh serum containing medium.
For complex formation, peptide was mixed with luc2 siRNA (sense 5′-[…]-3′ (SEQ ID NO:7), antisense 5′-[…] 3′ (SEQ ID NO:8), Metabion, Germany) or with siRNA against GFP (5′-[…] (SEQ ID NO:9), 3′-[…] (SEQ ID NO:10)) in mQ water (pH 5.3-6.3) using peptide to siRNA molar ratios (MR is the ratio of peptide to siRNA) […] and incubated at RT for 1 h. For siLuc2, the final concentration in media was 25 nM and for siGFP 100 nM. Cells were co-incubated with complexes for 4 h (37° C., 5% CO2), thereafter fresh serum containing media was added and followed by further incubation (20 h for siLuc2 or 44 h for siGFP complexes). Luciferase gene downregulation was measured from cell lysates with Promega luciferase assay system (Promega, Sweden) in combination with GLOMAX 96 microplate luminometer equipped with GLOMAX 1.9.2 software (Promega). GFP was measured after treatment from cell lysates on black 96-well plates by measuring total fluorescence (Symergy MX, BioTek Instruments, USA equipped with Gen5 1.10 software). The results were normalized to the protein content of each sample (DC Protein Assay, BioRad, USA).
For flow cytometry analysis (FACS) analysis CHO-GFP cells were seeded and treated as described previously. After incubation, cells were washed with 1× PBS and detached from plates with trypsin-EDTA (0.25%), and re-suspended in PBS supplemented with FBS (5%) and transferred to transparent U-bottom 96-well plates. FACS was carried out with BD LSR II flow cytometer (BD Biosciences, San Jose, CA, USA) equipped with a 488 nm argon laser. Population of viable cells was determined from scatter plot: forward scattered plot (FSC) vs. side scattered light (SSC) plot. A minimum of 10,000 events from the viable cell population per sample were analyzed using BD FACS Diva software. Results are shown as the population with GFP signal lower than that of 0.1% of untreated cells.
For confocal microscopy 2×10^5 cells per chamber were seeded on NUNC 8-chamber plates. After treatment with complexes (25 ul of pre-formed CPP/siRNA complexes added to cells in 225 ul serum containing media), incubated (48 h) and GFP florescence images of cells were captured using confocal microscope Zeiss LSM 710 and excitation at 488 nm (493-616 filter).

Question: With `CCCCCCCCCCCCCCCCCC(=O)N[C@@H](Cc1c[nH]cn1)C(=O)N[C@@H](Cc1c[nH]cn1)C(=O)N[C@@H](Cc1c[nH]cn1)C(=O)N[C@@H](Cc1c[nH]cn1)C(=O)N[C@@H](Cc1c[nH]cn1)C(=O)N[C@@H](Cc1c[nH]cn1)C(=O)NCC(=O)NCCC[C@H](N)C(=O)N[C@H](C(=O)N[C@@H](CC(C)C)C(=O)N[C@@H](CC(C)C)C(=O)N[C@@H](CCCCN)C(=O)N[C@@H](C)C(=O)N[C@@H](CC(C)C)C(=O)N[C@@H](CCCCN)C(=O)N[C@@H](C)C(=O)N[C@@H](CC(C)C)C(=O)N[C@@H](C)C(=O)N[C@@H](CCCCN)C(=O)N[C@@H](C)C(=O)N[C@H](C(=O)N[C@@H](CC(C)C)C(N)=O)[C@@H](C)CC)[C@@H](C)CC` [NF704] (I: H-[Orn]ILLKALKALAKAIL-NH2 / II: Stearoyl-HHHHHHG; amide I:1-II:C) as the compound, how does the “concentration at which free peptide is toxic to cells (MTS)” value (U87 cells) read?
Answer: 10 µM

Question: What about the “accessibility of siRNA in complexes (dye intercalation)” value ([1]; MR30, no heparin) of the same compound?
Answer: low accessibility of siRNA

Question: What about the “stability of complexes to heparin displacement (in words)” value ([1]; complexes pre-formed at MR30) of the same compound?
Answer: not as resistant to heparin displacement as H6^1-C20

Question: What about the “Red (%) (reduction, based on remaining luminescence on U87 cells post-treatment)” value ([2]; CPP/siRNA complexes, siRNA against luciferase) of the same compound?
Answer: 82%

Question: And the remaining reporter activity ([2]; molar ratio 30 (MR30, peptide to siRNA), untreated cells 100%)?
Answer: 19%

Question: What about the “cells with downregulated reporter gene (GFP signal below threshold), FACS” value ([3]; CHO-GFP, CPP/siGFP complexes) of the same compound?
Answer: 40%

Question: What about the “downregulation of GFP (average, cell lysate fluorescence)” value ([3]; siGFP 100 nM) of the same compound?
Answer: lower efficiency than H6-C20
